Measured values reported in patent US12023345B2, “Compositions and methods for treating lysosomal disorders” (RUSH UNIVERSITY MEDICAL CENTER, priority 2014, dated 2024).

What was measured:
Assay type in all cases: cell-based
[1] = system: Tfeb; experiment: TFEB immunocytochemistry in mouse primary astrocytes and neurons; details: 5 μM aspirin, 12 h
Method: Isolation of Primary Mouse Astroglia: Astroglia were isolated from mixed glial cultures as described (24, 25) according to the procedure of Giulian and Baker (26). Briefly, on day 9, the mixed glial cultures were washed three times with Dulbecco's modified Eagle's medium/F-12 and subjected to shaking at 240 rpm for 2 h at 37° C. on a rotary shaker to remove microglia. After 2 days, the shaking was repeated for 24 h for the removal of oligodendroglia and to ensure the complete removal of all nonastroglial cells. The attached cells were seeded onto new plates for further studies.
Isolation of Primary Mouse Neurons: Fetal (E18-E16) mouse neurons were prepared as previously described (27) with modifications. Whole brains were removed and the cells were washed by centrifugation three times at 1200 rpm for 10 min, the pellet dissociated and the cells plated at 10% confluence in 8-well chamber slides pre-treated for >2 hr with Poly-D-Lysine (Sigma, St. Louis, MO). After 4 min, the non-adherent cell suspension was aspirated and […] complete Neurobasal media (Invitrogen) supplemented with 2% B27 was added to each well. The cells were incubated for 4 days prior to experimentation. […] The cells were stimulated with gemfibrozil in Neurobasal media supplemented with 2% B27 minus antioxidants (Invitrogen) for 24 hr prior to methanol fixation and immunostaining.
Immunostaining of Cells: Immunocytochemistry was performed as described earlier (29). Briefly, 8 well chamber slides containing mouse primary astrocytes, mouse neurons were cultured to 70-80% confluence were fixed with chilled Methanol (Fisher Scientific, Waltham, MA) overnight, followed by two brief rinses with filtered PBS. […] The samples were run in an EtOH and Xylene (Fisher) gradient, mounted, and observed under Olympus BX41 fluorescence microscope.

[2] = system: LAMP2; experiment: LAMP2 protein by Western blot and immunocytochemistry in mouse primary brain cells; details: for level of LAMP2 (Western blot): different doses of aspirin
Method: Immunostaining of Cells: Immunocytochemistry was performed as described earlier (29). Briefly, 8 well chamber slides containing mouse primary astrocytes, mouse neurons were cultured to 70-80% confluence were fixed with chilled Methanol (Fisher Scientific, Waltham, MA) overnight, followed by two brief rinses with filtered PBS. Samples were blocked with 2% BSA (Fisher Scientific) in PBS containing Tween 20 (Sigma) and Triton X-100 (Sigma) for 30 min and incubated at room temperature under shaking conditions for 2 hr in PBS containing the following anti-mouse primary antibodies: TFEB (1:1000; Abcam), GFAP, (1:1000; DAKO), LAMP2 (1:500, Abcam), NeuN (1:500, Millipore), and MAP2 (1:200, Millipore). […] Following four 15 minute washes with filtered PBS, cells were incubated for 4-5 min with 4′, 6-diamidino-2-phenylindole (DAPI, 1:10,000; Sigma). The samples were run in an EtOH and Xylene (Fisher) gradient, mounted, and observed under Olympus BX41 fluorescence microscope.
Immunoblotting: Western blotting was conducted as described earlier (31, 32) with modifications. Briefly, cells were scraped in 1× RIPA buffer, protein was measured using Bradford reagent and sodium dodecyl sulfate (SDS) buffer was added and electrophoresed on NuPAGE® Novex® 4-12% Bis-Tris gels (Invitrogen) and proteins transferred onto a nitrocellulose membrane (Bio-Rad) using the Thermo-Pierce Fast Semi-Dry Blotter.
The membrane was then washed for 15 min in TBS plus Tween 20 (TBST) and blocked for 1 hr in TBST containing BSA. Next, membranes were incubated overnight at 4° C. under shaking conditions with the following 1° antibodies; TFEB (1:1000, Abcam), LAMP2 (1:500, Abcam) and β-actin (1:800; Abcam, Cambridge, MA). The next day, membranes were washed in TBST for 1 hr, incubated in 2° antibodies against 1° antibody hosts (all 1:10,000; Jackson ImmunoResearch) for 1 hr at room temperature, washed for one more hour and visualized under the Odyssey® Infrared Imaging System (Li-COR, Lincoln, NE).

[3] = system: Tfeb; experiment: TFEB mRNA by semi-quantitative RT-PCR in mouse primary astrocytes; details: different concentrations, 5 hr, serum-free
Method: Semi-Quantitative Reverse Transcriptase-Coupled Polymerase Chain Reaction (RT-PCR): Total RNA was isolated from mouse primary astrocytes and human primary astrocytes using RNA-Easy Qiagen (Valencia, CA) kit following manufactures protocol. Semi-quantitative RTPCR was carried out as described earlier (28) using oligo (dT) 12-18 as primer and moloney murine leukemia virus reverse transcriptase (MMLV-RT, Invitrogen) in a 20 μl reaction mixture. The resulting cDNA was appropriately amplified using Promega Master Mix (Madison, WI) and the following primers (Invitrogen) for murine genes: […]
Amplified products were electrophoresed on 2% agarose (Invitrogen) gels and visualized by ethidium bromide (Invitrogen) staining. Glyceraldehyde-3-phosphate dehydrogenase (Gapdh) mRNA was used as a loading control to ascertain that an equivalent amount of cDNA was synthesized from each sample.
Mouse primary astrocytes were incubated with different concentrations (see FIG. 9) of simvastatin and pravastatin (A), (B), cinnamic acid (C), and sodium phenylbutyrate and sodium benzoate (D) for 5 hr. under serum-free condition followed by monitoring the mRNA expression of TFEB by semi-quantitative RT-PCR. Sodium formate (D) was used as a negative control for sodium phenylbutyrate and sodium benzoate.

## CC(=O)Oc1ccccc1C(=O)O [aspirin]
[1]; PPARα (−/−) astrocytes
  TFEB expression (immunofluorescence): not PPARα (−/−)
[1]; PPARβ (−/−) astrocytes
  TFEB expression (immunofluorescence): induced the expression of TFEB
[1]; WT astrocytes
  TFEB expression (immunofluorescence): induced the expression of TFEB
[2]; PPARα (−/−) astrocytes, 24 h
  level of LAMP2 (Western blot): not PPARα (−/−)
[2]; PPARβ (−/−) astrocytes, 24 h
  level of LAMP2 (Western blot): dose-dependently increased the level of LAMP2
[2]; WT astrocytes, 24 h
  level of LAMP2 (Western blot): dose-dependently increased the level of LAMP2
[2]; astrocytes, 5 μM aspirin, serum-free
  LAMP2 protein expression (Western blot), time course: time-dependent increase
[2]; astrocytes, aspirin 2 and 5 μM, 24 h
  LAMP2 protein expression (Western blot), dose: increase in LAMP2 protein expression
[3]
  TFEB mRNA expression (semi-quantitative RT-PCR): upregulation of TFEB mRNA expression
